In ChEMBL document CHEMBL5053556, “Design, Synthesis, and Biological Evaluation of a Novel Series of Teriflunomide Derivatives as Potent Human Dihydroorotate Dehydrogenase Inhibitors for Malignancy Treatment” (J Med Chem, 2021):
Values after ≈ are worked out from the molar mass of the structure shown.

Columns and labels:
[1] = molecular target: T1, Dihydroorotate dehydrogenase (quinone), mitochondrial (Homo sapiens, UniProt Q02127)
Description: Inhibition of human DHODH using dihydroorotate substrate preincubated for 30 mins followed by substrate addition by DCIP based microplate reader analysis

Raji [2] = assay: Antiproliferative activity against human Raji cells assessed as cell growth inhibition incubated for 96 hrs by MTT assay; format: functional, cell-based
L02 = assay: cells; format: ADME, cell-based; settings: Homo sapiens, L02, 96 h
Description: Cytotoxicity against human L02 cells assessed as cell growth inhibition incubated for 96 hrs by MTT assay

[3] = molecular target: T1, Dihydroorotate dehydrogenase (quinone), mitochondrial; settings: dose 100.0 nM, time 30.0 min
physchem = settings: aqueous
Description: Aqueous solubility of compound by UPLC method

in vitro = settings: human, L02 cells and Raji cells
Description: Selectivity index, ratio of IC50 for human L02 cells to IC50 for human Raji cells

Mus musculus = assay: Toxicity in NOD-SCID mouse xenografted with human Raji cells assessed as body weight loss at 1.5 mg/kg, po administered for 25 days; format: organism-based; settings: in vivo, 600 h, time 25 day
Raji [4] = assay: animal or person; settings: Mus musculus, po, 600 h, read-out: TGI
Description: Antitumor activity against human Raji cells xenografted in NOD-SCID mouse assessed as tumor growth inhibition at 1.5 mg/kg, po administered for 25 days

T1 sequence (Q02127 whole entry): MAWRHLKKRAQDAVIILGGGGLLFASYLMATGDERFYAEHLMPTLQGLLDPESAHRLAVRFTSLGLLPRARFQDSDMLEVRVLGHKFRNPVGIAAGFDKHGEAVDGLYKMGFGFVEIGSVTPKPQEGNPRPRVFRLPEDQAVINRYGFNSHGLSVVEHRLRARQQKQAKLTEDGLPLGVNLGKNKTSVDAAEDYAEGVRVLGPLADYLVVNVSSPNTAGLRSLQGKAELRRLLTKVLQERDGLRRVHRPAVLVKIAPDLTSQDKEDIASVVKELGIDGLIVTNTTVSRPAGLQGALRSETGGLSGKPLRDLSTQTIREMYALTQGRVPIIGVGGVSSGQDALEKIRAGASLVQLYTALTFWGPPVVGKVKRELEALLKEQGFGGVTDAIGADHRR

Row | SMILES | IC50 [1] | IC50 (Raji [2]) | IC50 (L02) | inhibition [3] | solubility (physchem) | selectivity ratio (in vitro) | Activity (Mus musculus) | inhibition in vivo at 1.5 mg/kg (Raji [4])
1 | C/C(O)=C(\C#N)C(=O)Nc1cc(O[C@@H](C)C(F)(F)F)c(C(=O)Nc2c(Cl)cccc2Cl)cc1F | 5.7 nM | 32.1 nM | 452 nM | 96.4% | 2400 µg/mL (≈ 4.61 mM) | 14.1 | – | –
2 | C/C(O)=C(\C#N)C(=O)Nc1cc(OC(C)C)c(C(=O)Nc2c(F)cccc2Br)cc1F | 18.2 nM | 347 nM | 2100 nM | 85.4% | – | 6.1 | – | –
3 | CCOc1cc(NC(=O)/C(C#N)=C(/C)O)c(F)cc1C(=O)Nc1c(F)cccc1F | – | – | – | 40.2% | – | – | – | –
4 | C/C(O)=C(\C#N)C(=O)Nc1cc(OC(C)C)c(C(=O)Nc2ccc(F)cc2)cc1F | – | – | – | 7.5% | – | – | – | –
5 | C/C(O)=C(\C#N)C(=O)Nc1cc(O[C@@H](C)C(F)(F)F)c(C(=O)Nc2c(Br)cccc2Br)cc1F | 7.3 nM | 35.1 nM | 426 nM | 96.9% | 2100 µg/mL (≈ 3.45 mM) | 13.1 | – | –
6 | CCn1c(CO)nn(-c2cc(O[C@@H](C)C(F)(F)F)c(C(=O)Nc3c(F)cccc3Cl)cc2F)c1=O | – | 0.4 nM | 1.1 nM | – | – | – | Toxic | 79%
7 | COc1cc(NC(=O)/C(C#N)=C(/C)O)c(F)cc1C(=O)Nc1c(F)cccc1F | – | – | – | 27.4% | – | – | – | –
